Results on nine compounds are retold here after ChEMBL document CHEMBL3797192, “Potential pancreatic lipase inhibitory activity of phenolic constituents from the root bark of Morus alba L” (Bioorg Med Chem Lett, 2016).

SMILES strings stand for the structures.

The experiment deals with T1, Pancreatic triacylglycerol lipase (Sus scrofa, UniProt P00591).
T1 sequence (P00591 whole entry): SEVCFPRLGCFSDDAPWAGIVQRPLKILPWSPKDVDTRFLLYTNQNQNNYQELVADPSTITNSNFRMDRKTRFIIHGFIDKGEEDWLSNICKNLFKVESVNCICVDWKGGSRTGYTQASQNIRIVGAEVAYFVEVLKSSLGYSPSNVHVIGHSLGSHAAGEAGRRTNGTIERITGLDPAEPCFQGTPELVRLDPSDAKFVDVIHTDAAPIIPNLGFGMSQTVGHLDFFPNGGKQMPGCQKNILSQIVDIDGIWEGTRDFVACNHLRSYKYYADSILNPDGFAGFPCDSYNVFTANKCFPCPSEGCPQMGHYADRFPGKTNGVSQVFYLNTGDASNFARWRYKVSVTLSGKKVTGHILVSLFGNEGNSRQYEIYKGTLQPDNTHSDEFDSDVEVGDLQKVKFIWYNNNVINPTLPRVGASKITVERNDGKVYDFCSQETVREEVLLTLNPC
The experiment in a line: Inhibition of porcine pancreatic lipase using p-nitrophenyl butyrate as substrate assessed as formation of p-nitrophenol preincubated for 10 mins followed by substrate addition by spectrophotometric method.
Regarding `CC(C)=CCC/C(C)=C\Cc1c(O)ccc2cc(-c3cc(O)c4ccoc4c3)oc12`, the IC50 (commonly the concentration needed to halve the response being measured) is 480 nM. As for `COc1cc(O)cc(-c2cc3ccc(O)c(C/C=C(/C)CCC=C(C)C)c3o2)c1CC=C(C)C`, the half-maximal inhibitory concentration (IC50) was found to be 920 nM. On to `CC(C)=CCCC(C)=CCc1c(O)cc2c(c1O)C(=O)C[C@@H](c1ccc(O)c(CC=C(C)C)c1O)O2`, for which the IC50 was found to be 710 nM. As for `COc1cc(O)cc(/C=C/c2ccc(O)cc2)c1C/C=C(/C)CCC=C(C)C`, the half-inhibitory concentration (IC50) was 850 nM. On to `CC(C)=CCCC1(C)C=Cc2c(O)cc(-c3cc4ccc(O)cc4o3)cc2O1` (centres undefined), for which the IC50 came out at 760 nM. The figure for `CC(C)=CCC/C(C)=C\CC/C(C)=C\Cc1c(O)cc(O)c(CC=C(C)C)c1-c1cc2ccc(O)cc2o1` is 390 nM. For `COc1cc(O)cc(-c2cc3ccc(O)cc3o2)c1C/C=C(/C)CC/C=C(/C)CCC=C(C)C`, the IC50 is 570 nM. The figure for `CC(C)=CCC/C(C)=C/Cc1c(O)ccc2cc(-c3cc(O)cc(O)c3CC=C(C)C)oc12` [MULBERROFURAN D] is 90 nM. With `CC(C)=CCC/C(C)=C\CC/C(C)=C\Cc1c(O)cc(O)cc1-c1cc2ccc(O)cc2o1` [MULBERROFURAN W], the IC50 was determined as 700 nM.
